Entries after “also recorded” stand apart in the source; their conditions may differ. Where two headings read alike, the source gives them in different places.
Key:
[1] = tested on: MCP-1 production in H1N1-infected A549 cells; format: cell-based, human
[2] = target: NA of A/Sydney/5/97 (H3N2) (Influenza A virus, UniProt Q9DIC9); experiment: Neuraminidase inhibition assay (fluorimetric, MUNANA); format: biochemical, influenza A virus A/Sydney/5/97 (H3N2)
[3] = tested on: IL-6 production in H1N1-infected A549 cells; format: cell-based, human
[4] = NA from A/Sydney/5/97 (H3N2), 37 °C, 40 min, pH 6.5, read-out: IC50, inhibition of NA, A/Sydney/5/97(H3N2) (converted)

In the case of `O=C(Oc1cc(O)c2c(c1)OC(c1cc(O)c(O)c(O)c1)C(O)C2)c1cc(O)c(O)c(O)c1` (single isomer, unassigned; (+)) [Compound 3, (+)-3,5,3',4',5'-penta-hydroxyflavan-7-gallate], the “inhibition of MCP-1 expression induced by influenza H1N1 virus (in words)” value (“inhibition of MCP-1 expression induced” for short) [1] is reported as “worst inhibition”, the IC50 [2, 4] is reported as greater than 87.3 µM and the “inhibition of IL-6 expression induced by influenza H1N1 virus (in words)” value [3] is reported as “weakest inhibition; also recorded: worst inhibition”.
`CC1(C)O[C@@H]2Cc3c(O)cc(OC(=O)c4cc(O)c(O)c(O)c4)cc3O[C@@H]2c2cc(O)c(O)c(O)c21` [Compound 1, (2R,3R)-7-O-galloylplumbocatechin A] was tested, and the “inhibition of MCP-1 expression induced” value [1] was “inhibit MCP-1 expression best at the lowest concentrated dilution of 3 μg/mL; also recorded: best results” and the IC50 [2, 4] was 64.7 µM.
`O=C(Oc1cc(O)c2c(c1)O[C@H](c1cc(O)c(O)c(O)c1)CC2)c1cc(O)c(O)c(O)c1` [Compound 2, (−)-5,3',4',5'-tetrahydroxyflavan-7-gallate] was tested, and the “inhibition of MCP-1 expression induced” value [1] was “inhibit MCP-1 expression best at the lowest concentrated dilution of 3 μg/mL”, the IC50 [2, 4] was greater than 90.4 µM and the “inhibition of IL-6 expression induced by influenza H1N1 virus (in words)” value [3] was “best inhibitory effect”.
In the case of `O=C(Oc1cc(O)c2c(c1)O[C@H](c1cc(O)c(OC(=O)c3cc(O)c(O)c(O)c3)c(O)c1)CC2)c1cc(O)c(O)c(O)c1` [Compound 4, (−)-7,4'-di-O-galloyltricetiflavan], the IC50 [2, 4] is reported as greater than 67.3 µM.
`CC(=O)N[C@H]1[C@H]([C@H](O)[C@H](O)CO)OC(C(=O)O)=C[C@@H]1N=C(N)N` [zanamivir, reference compound] was tested, and the IC50 [2] was 0.000632 µM.

— article PMC6271231 (Molecules, 2014)
